Measurements published in PubChem BioAssay (NCI).
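Five compound concentrations were applied to cells in 96-well plates for 48 hours; endpoints were derived by simple linear interpolation of the resulting dose-response curve. The concentration for full growth arrest is given as TGI.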

Legend:
Test in all cases: inhibition of tumour cell growth, NCI panel, 48 h
SNB-75 CNS = system: SNB-75 CNS
SF-295 CNS = system: SF-295 CNS
KM12 colon = system: KM12 colon
PC-3 prostate = system: PC-3 prostate
SW-620 colon = system: SW-620 colon
EKVX NSCLC = system: EKVX NSCLC
HCT-15 colon = system: HCT-15 colon
MDA-N = system: MDA-N
IGROV1 ovarian = system: IGROV1 ovarian
786-0 renal = system: 786-0 renal
M14 melanoma = system: M14 melanoma
SK-OV-3 ovarian = system: SK-OV-3 ovarian

Compound	TGI (SNB-75 CNS) [µM]	TGI (SF-295 CNS) [µM]	TGI (KM12 colon) [µM]	TGI (PC-3 prostate) [µM]	TGI (SW-620 colon) [µM]	TGI (EKVX NSCLC) [µM]	TGI (HCT-15 colon) [µM]	TGI (MDA-N) [µM]	TGI (IGROV1 ovarian) [µM]	TGI (786-0 renal) [µM]	TGI (M14 melanoma) [µM]	TGI (SK-OV-3 ovarian) [µM]
Cc1cccc(C(O)c2cccnc2)c1O (configuration not stated)	> 100	> 100	> 100	> 100	> 100	> 100	> 100	> 100	> 100			
CN(CCN(C)C(=O)CCn1ccc(=O)[nH]c1=O)C(=O)CCn1ccc(=O)[nH]c1=O	> 100	> 100	> 100		> 100	> 100	> 100		> 100	> 100	> 100	
O=C(Nc1nc(C23CC4CC(CC(C4)C2)C3)cs1)c1cc2cc([N+](=O)[O-])ccc2oc1=O	74.9	> 100	> 100	> 100	> 100	> 100	> 100	> 100	> 100	45.2		
CC1(C)N=C(N)N=C(N)N1c1ccc(OCCCOc2ccccc2)c(Cl)c1	17.3	> 43.7	12.3		13.7	14.4	> 100		7.52			35.1
COc1ccc(N2C(=O)C(N3C(=O)C=CC3=O)C2C=O)cc1 (configuration not stated)	> 100	> 100	> 100		> 100	> 100	> 100		> 100	> 100	> 100	> 100
O=C1OC(c2ccccc2)=N/C1=C/N1CCCC1C(=O)O (configuration not stated)	> 100	> 100	> 100		> 100	> 100	> 100		> 100	> 100	> 100	> 100
COc1cccc(C2CC(=O)c3cccn32)c1 (configuration not stated)	> 100	> 100	> 100	> 100	> 100	> 100	> 100		> 100	> 100	> 100	> 100
S=C(Nc1ccc2c(c1)Cc1ccccc1-2)Nc1ccc2c(c1)Cc1ccccc1-2		> 100	> 100	> 100	> 100	> 100	> 100	> 100	> 100	> 100	> 100	> 100
CC(=O)[C@H]1CCC2[C@@H]3CC=C4C(O)C(OS(=O)(=O)O)CC[C@]4(C)C3CC[C@@]21C (some centres not stated)	> 100	> 100	> 100		> 100	> 100	> 100		> 100			> 100
O=C(O)CCCc1ccc2c(c1)CC1(C2)Cc2ccc(CCCC(=O)O)cc2C1		> 100	> 100	> 100		> 100	> 100	> 100	> 100	> 100	> 100	> 100
CC1(C)Oc2ccc3c(=O)c4ccccc4oc3c2C1C(=O)O (configuration not stated)		> 100		> 100		> 100		> 100	> 100	> 100	> 100	> 100
CCCCCCCCCCCCCCCCNc1ccn(C2CC(OP(=O)(O)OCC3OC(n4cc(CC)c(=O)[nH]c4=O)CC3O)C(CO)O2)c(=O)n1 (configuration not stated)	81.1	34.5	29.6	37.1	65.4	> 100	72.5		> 100	> 100	33.2	82.1
CC1(C)CC2(C)OC(=N)C1(C#N)C2(C#N)C#N (configuration not stated)		31.5	29.4	30.3	11.1	19.4	4.84	20.2	29.9	16.7	23.8	> 100
c1ccc(COc2cccc3cccnc23)cc1	> 100	> 100	> 100		> 100	> 100			> 100	> 100	> 100	> 100
O=C(C=P(c1ccccc1)(c1ccccc1)c1ccccc1)c1ccc(-c2ccc(F)cc2F)cc1		9.87	13.8	17.5	14.9	11	7.81	8.8		13.7	5.76	8.63
O=c1/c(=C/c2ccc(-c3ccc(Cl)cc3Cl)o2)sc2n1[C@@H](c1ccc3c(c1)OCO3)C=C(c1cc(F)c(Cl)cc1Cl)N=2	> 100	> 100	> 100	> 100	> 100		> 100	> 100	> 100	> 100	> 100	62.1
O=C(NCc1ccccc1)c1c(O)c2ccccc2[nH]c1=O	> 100	> 100	> 100	> 100	> 100	> 100	> 100	> 100	> 100	> 100		
CCOC(=O)c1cc(-c2ccn(C(C)=O)c2)c(-c2cc(C)co2)[nH]1	> 100	> 100	> 100	> 100	> 100	> 100	> 100	> 100	> 100	> 100	> 100	
C=C1CC(OC)(C(O)C(=O)N[C@H]2OCO[C@H]3C2O[C@H](C[C@H](O)COC)C(C)(C)C3OC)O[C@H](C)[C@@H]1C (some centres not stated)	> 0.00772	> 0.00772				> 0.00772	> 0.00772		> 0.00772			
COc1cc(C2(C)SCCCS2)c(I)c(OC)c1OC	> 100	> 100	> 100		> 100	> 100	> 100		> 100	> 100	> 100	> 100
O=c1c(-c2ccc(O)cc2)coc2cc(O)cc(O)c12		> 100	> 100	> 100	> 100	> 100	> 100	> 100	> 100	> 100	> 100	
